Test results as given in US20240366582A1, “TREATMENT OF RAYNAUD'S DISEASE” (Aisa Pharma, Inc., priority 2020, published 2024).

Tests used:
[1] = in vivo; cited from earlier work
[2] = tested on: Raynaud's Phenomenon (RP) attacks in participants with SSc-RP; assay: Average duration of weekly RP attacks (symptomatic / all attacks), patient diary, Phase 2a Part A; assay type: in vivo, human; settings: for Average Duration of Weekly RP Attacks (All Attacks), Baseline, Mean / Average Duration of Weekly RP Attacks (All Attacks), Baseline, Median / Average Duration of Weekly RP Attacks (All Attacks), Average Duration, Mean / Average Duration of Weekly RP Attacks (All Attacks), Average Duration, Median: ITT Population-Part A; for Average Duration of Weekly RP Attacks (All Attacks), Baseline, Mean / Average Duration of Weekly RP Attacks (All Attacks), Baseline, Median: last 7 days of screening period, before dosing; for Average Duration of Weekly RP Attacks (All Attacks), Average Duration, Mean / Average Duration of Weekly RP Attacks (All Attacks), Average Duration, Median: last 7 days of the dosing period
Source text: (§1) The Sponsor-developed participant-informed E-Diary has been and will be used in this study to record data. Participants have been or will be required to keep and fill the E-Diary daily as delineated in the SoAs ((FIG. 2 and FIG. 3A and/or FIG. 3B). • The relevant metrics measured by this tool daily are: • Study medication • SSc-RP symptoms (Reporting an attack including duration of attack) • Severity of the attack considering all symptoms of the attack e.g. tingling, numbness, pain, color changes (VAS 0-10 cm scale) • Participant's location at the time of the attack (inside home/outside home) • Selecting symptoms experienced during the attack (tingling, numbness, pain, color changes, other) • Pain rating during the attack (11-point Likert scale) • The RCS based on how much difficulty participants had with Raynaud's today, how many attacks the participant had, and how long they lasted. Participants will also be asked to consider how much pain, numbness, or other symptoms the Raynaud's caused in fingers (including painful sores), and how much the Raynaud's alone affected the use of hands today (VAS 0-10 cm scale). • The relevant metrics measured by this tool at the in-clinic visit (once in a Dosing Period) are: • Digital ulcer severity (VAS 0-10 cm scale)—Applicable only if participant has digital ulcers. • Scleroderma Health Assessment Questionnaire which includes Raynaud's VAS measuring participant quality of life over the past • Note: Digital ulcer severity (VAS 0-10 cm scale) and SHAQ scale can also be done on paper in-clinic, if necessary. Also, external temperature will be a feed into the E-Diary database based on participant's location.
The absolute change in average duration of weekly RP attacks from baseline to the end of each dosing period was and will be a secondary outcome variable. The sponsor-developed participant-informed diary was and will be used to record data. Average duration of weekly RP attacks is defined as the total duration of RP attacks divided by total number of RP attacks within the last 7 days of each dosing period. Total duration of RP attacks during the last 7 days of screening period divided by the total number of RP attacks will be used as baseline for the analysis of all periods. The variable will be calculated similar to frequency data as before.
The following data was actually obtained in accordance with the protocol and plan delineated in Examples 1 and 2. The accompanying data involved 11 patients out of the planned 76 patient study. The study was done in patients with scleroderma (systemic sclerosis) who had relatively frequent Raynaud symptoms as they needed to average at least one attack per day during a screening period of up to two weeks. In this first phase of this double-blind placebo-controlled, prospective randomized study, patients were treated in parallel and after meeting study criteria were randomized to receive either placebo, cilnidipine 10 mg daily, cilnidipine 20 mg daily, tadalafil 5 mg daily, cilnidipine 10 mg plus 5 mg of tadalafil, or cilnidipine 20 mg plus 5 mg of tadalafil.

[3] = tested on: Raynaud's Phenomenon (RP) attacks in participants with SSc-RP; assay: Frequency of weekly RP attacks (symptomatic attacks / all attacks), patient diary, Phase 2a Part A; assay type: in vivo, human
Procedure: A randomized, placebo-controlled phase 2a study was performed and is in progress to assess the safety and efficacy of cilnidipine (10 mg and 20 mg) alone and in combination with 5 mg tadalafil, in participants with diagnosis of secondary Raynaud's disease.
Part A-Double-blind, Placebo-controlled, Parallel-group, Dose selection, will assess the safety and efficacy of two doses of cilnidipine (10 mg and 20 mg), alone and in combination with tadalafil. A total of 36 participants will be randomized to one of six pre-specified treatment arms. See Example 3 for data obtained in this phase of the study thus far, on 11 participants.
The Sponsor-developed participant-informed E-Diary has been and will be used in this study to record data. […]

[4] = tested on: Raynaud's Phenomenon (RP) attacks in participants with SSc-RP; assay: Average severity of weekly RP attacks (VAS 0-10; symptomatic / all attacks), patient diary, Phase 2a Part A; assay type: in vivo, human; settings: for Average Severity of Weekly Symptomatic RP Attacks, Mean: Pooled Cilnidipine 20 mg and Cilnidipine 20 mg + Tadalafil 5 mg, severity (0-10), ITT Population - Part A
Source text: as §1
The absolute change in average severity of weekly RP attacks (VAS 0-10 cm scale) from baseline to the end of each Dosing Period was and will be a secondary outcome variable. The sponsor-developed participant-informed diary will be used to record data. […] The variable will be calculated similar to frequency data as before. […]

Nav 1.7 sodium channel = Nav 1.7 sodium channel (Homo sapiens, UniProt Q15858); settings: see WO 2021/178903; cited from earlier work
[5] = by Baseline RCS, first subgroup (RCS category not given)
[6] = by Baseline RCS, second subgroup (r96-r180, RCS category not given)

Nav 1.7 sodium channel, sequence (Q15858 whole entry): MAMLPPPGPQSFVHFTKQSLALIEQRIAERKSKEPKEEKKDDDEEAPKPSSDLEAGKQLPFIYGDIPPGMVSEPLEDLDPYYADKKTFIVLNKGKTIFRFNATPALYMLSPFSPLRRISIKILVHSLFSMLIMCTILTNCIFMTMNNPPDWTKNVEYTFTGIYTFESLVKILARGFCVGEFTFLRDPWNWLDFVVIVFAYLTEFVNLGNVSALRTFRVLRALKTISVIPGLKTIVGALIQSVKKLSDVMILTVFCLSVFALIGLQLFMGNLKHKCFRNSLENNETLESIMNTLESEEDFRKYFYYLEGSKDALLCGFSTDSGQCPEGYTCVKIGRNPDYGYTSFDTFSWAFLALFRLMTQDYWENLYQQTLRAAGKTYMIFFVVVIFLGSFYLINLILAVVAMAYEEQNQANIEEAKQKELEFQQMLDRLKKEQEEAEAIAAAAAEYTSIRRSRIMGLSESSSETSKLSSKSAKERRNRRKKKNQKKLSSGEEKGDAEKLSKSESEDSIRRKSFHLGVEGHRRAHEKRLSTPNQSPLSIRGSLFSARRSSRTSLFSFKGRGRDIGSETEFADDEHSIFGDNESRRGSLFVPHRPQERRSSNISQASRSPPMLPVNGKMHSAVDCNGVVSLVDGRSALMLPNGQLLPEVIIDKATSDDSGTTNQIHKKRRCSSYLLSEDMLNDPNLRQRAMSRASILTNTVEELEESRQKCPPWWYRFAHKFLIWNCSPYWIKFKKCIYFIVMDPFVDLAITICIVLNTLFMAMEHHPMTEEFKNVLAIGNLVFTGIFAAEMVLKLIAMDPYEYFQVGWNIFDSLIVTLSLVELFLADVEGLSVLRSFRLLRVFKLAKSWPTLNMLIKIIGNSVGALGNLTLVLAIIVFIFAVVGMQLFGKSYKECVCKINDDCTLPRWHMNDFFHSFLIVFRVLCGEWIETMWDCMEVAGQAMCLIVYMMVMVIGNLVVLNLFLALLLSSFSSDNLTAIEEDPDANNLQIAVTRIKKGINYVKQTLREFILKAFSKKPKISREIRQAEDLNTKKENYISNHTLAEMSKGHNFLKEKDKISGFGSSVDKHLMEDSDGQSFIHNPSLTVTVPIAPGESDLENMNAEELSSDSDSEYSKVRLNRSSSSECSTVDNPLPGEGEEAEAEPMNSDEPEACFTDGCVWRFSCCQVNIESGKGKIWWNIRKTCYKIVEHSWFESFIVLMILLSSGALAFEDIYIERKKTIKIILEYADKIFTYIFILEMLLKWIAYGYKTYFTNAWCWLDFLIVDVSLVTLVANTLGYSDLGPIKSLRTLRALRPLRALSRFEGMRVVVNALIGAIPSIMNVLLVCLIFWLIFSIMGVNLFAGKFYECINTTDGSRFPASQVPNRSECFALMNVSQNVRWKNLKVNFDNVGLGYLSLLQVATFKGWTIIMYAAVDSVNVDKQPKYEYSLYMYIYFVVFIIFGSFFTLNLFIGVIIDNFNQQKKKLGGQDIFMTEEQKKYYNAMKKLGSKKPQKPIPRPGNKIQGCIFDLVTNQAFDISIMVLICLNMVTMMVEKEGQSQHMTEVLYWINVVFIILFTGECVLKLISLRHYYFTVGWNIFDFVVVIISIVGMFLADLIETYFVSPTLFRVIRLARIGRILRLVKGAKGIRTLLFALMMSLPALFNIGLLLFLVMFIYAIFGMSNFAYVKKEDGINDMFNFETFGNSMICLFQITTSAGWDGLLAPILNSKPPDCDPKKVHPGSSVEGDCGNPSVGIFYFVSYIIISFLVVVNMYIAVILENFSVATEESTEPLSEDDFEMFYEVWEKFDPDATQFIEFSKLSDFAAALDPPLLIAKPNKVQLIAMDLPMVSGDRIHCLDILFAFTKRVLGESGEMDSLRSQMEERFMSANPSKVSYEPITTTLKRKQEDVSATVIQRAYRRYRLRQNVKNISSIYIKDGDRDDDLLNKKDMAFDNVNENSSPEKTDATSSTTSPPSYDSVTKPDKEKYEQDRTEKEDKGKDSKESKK

Row | SMILES | Average Duration of Weekly RP Attacks (All Attacks), Baseline, Mean ([2]; Excluding Outliers) [min] | Average Duration of Weekly RP Attacks (All Attacks), Baseline, Median ([2]; Excluding Outliers) [min] | Average Duration of Weekly RP Attacks (All Attacks), Baseline, Mean [2] [min] | Average Duration of Weekly RP Attacks (All Attacks), Baseline, Median [2] [min] | Average Duration of Weekly RP Attacks (All Attacks), Baseline, Mean [2, 5] [min] | Average Duration of Weekly RP Attacks (All Attacks), Baseline, Median [2, 5] [min] | further results
1 | CCOC(=O)C1=C(COCCN)NC(C)=C(C(=O)OC)C1c1ccccc1Cl (stereo not drawn) [amlodipine] |  |  |  |  |  |  | time to reach maximal plasma concentrations [1]: 10 h
2 | COCCOC(=O)C1=C(C)NC(C)=C(C(=O)OC/C=C/c2ccccc2)C1c1cccc([N+](=O)[O-])c1 (stereo not drawn) [Cilnidipine 20 mg] | 17.81 | 17.81 | 17.81 | 17.81 | 17.81 | 17.81 | 
3 | COCCOC(=O)C1=C(C)NC(C)=C(C(=O)OC/C=C/c2ccccc2)C1c1cccc([N+](=O)[O-])c1 (stereo not drawn) [Cilnidipine, cilnidipine, reference compound] |  |  |  |  |  |  | change in duration of Raynaud attacks (in words) ([2]; cilnidipine or cilnidipine plus tadalafil (n=7), tadalafil monotherapy (n=2)): decrease greater than that seen in placebo treated patients; patients in whom average frequency of Raynaud's attacks decreased more than 25% ([3]; all cilnidipine and cilnidipine plus tadalafil treated patients together (n=7)): 6 of 7; change in weekly frequency of Raynaud attacks (in words) ([3]; cilnidipine and cilnidipine plus tadalafil treated patients (n=7), tadalafil alone, milder and more severe disease): decrease; Average Severity of Weekly Symptomatic RP Attacks, Mean ([4]; Excluding Outliers): 3.40; Average Severity of Weekly Symptomatic RP Attacks, Mean [4]: 3.40; change in severity of attacks (in words) ([4]; cilnidipine monotherapy (n=3), cilnidipine plus tadalafil (n=4) vs tadalafil monotherapy (n=2)): 20 mg reducing severity more than 10 mg; Tmax (time to achieve maximal plasma concentrations) [1]: 2 h; activity against the Nav 1.7 sodium channel (Nav 1.7 sodium channel): has activity
4 | COCCOC(=O)C1=C(C)NC(C)=C(C(=O)OC/C=C/c2ccccc2)C1c1cccc([N+](=O)[O-])c1 (stereo not drawn) [Cilnidipine 10 mg] | 40.00 | 40.00 | 40.00 | 40.00 | 40.00 | 40.00 | 
5 | CN1CC(=O)N2[C@H](c3ccc4c(c3)OCO4)c3[nH]c4ccccc4c3C[C@@H]2C1=O [Tadalafil 5 mg] | 10.92 | 10.92 |  |  |  |  | Average Duration of Weekly RP Attacks (All Attacks), Baseline, Mean [2, 6]: 320.46 min; Average Duration of Weekly RP Attacks (All Attacks), Baseline, Median [2, 6]: 320.46 min
6 | COCCOC(=O)C1=C(C)NC(C)=C(C(=O)OC/C=C/c2ccccc2)C1c1cccc([N+](=O)[O-])c1 (stereo not drawn) [Pooled Cilnidipine] | 25.21 | 25.00 |  |  | 25.21 | 25.00 | Average Duration of Weekly RP Attacks (All Attacks), Average Duration, Mean ([2]; Excluding Outliers): 21.66 min; Average Duration of Weekly RP Attacks (All Attacks), Average Duration, Median ([2]; Excluding Outliers): 30.45 min; Average Duration of Weekly RP Attacks (All Attacks), Average Duration, Mean [2, 5]: 21.66 min; Average Duration of Weekly RP Attacks (All Attacks), Average Duration, Median [2, 5]: 30.45 min
